Laboratory results taken from patent publication US20140370320A1, “WOOD PRESERVATIVE” (Arch Wood Protection Pty Ltd, priority 2011, published 2014).

Assays:
Coniophora olivacea = assay: Laboratory fungal bioassay (Example 6), mass loss of treated, leached radiata pine sapwood; type: cell-based
Procedure: (§1) The bioassay was carried out in accordance with recognised methods (see, Protocols for the Assessment of Wood Preservatives, Australasian Wood Preservation Committee, March 2007 Revision, Ensis, Clayton).
(§2) Radiata pine sapwood (20×20×10 mm) specimens were treated with various preservative formulations. After drying the specimens were saturated with water and leached in a shaking water-bath at 35° C. for seven days, with daily changes of water. After leaching, the specimens were vacuum oven dried, before being sterilised in readiness for the fungal bioassay. The bioassay was carried out in accordance with standard laboratory techniques, by an independent research provider.
(§3) Mass loss was used to determine the effectiveness of a preservative treatment. […] Decay is deemed to have been prevented if the mass loss is less than 3%.
Some basidiomycete decay fungi are more tolerant to azoles that others. In this bioassay, a selection of brown rot fungi were chosen. One of those chosen, Coniophora olivacea, is relatively resistant to azoles.

Fomitopsis lilacinogilva = assay: as above; type: cell-based
Procedure: as §1, §2, §3
Fomitopsis lilacinogilva is a wood-rotting bracket fungus common in many places of Gondwanaland origin. It is found on logs, stumps, and some outdoor wooden constructions. It forms fans, shelves, pads or crusts, to 100 mm across, is hairy, crusted above, zoned pinkish and brownish. The results against Fomitopsis lilacinogilva were less spectacular. Azole/zinc 1:2 gave 10% mass loss; 1:1 gave 15.9% mass loss; and azoles alone gave 19.9% mass loss versus the control (71.5% mass loss).

[1] = tested on: decay of Radiata pine sapwood panels (field exposure, Hawaii); assay: Hawaiian field trial, flat panel test on treated radiata pine sapwood panels
Procedure: Radiata pine sapwood panels (200×70×25 mm) were treated with various preservatives and exposed on racks at 45°, using a method generally described as the “flat panel test” (Reference: Australasian Wood Preservation Committee, Protocols for Assessment of Wood Preservatives, March 2007 Revision, pp. 32). Untreated controls, solvent-treated controls and panels treated with reference preservatives (e.g., CCA) were also included in this field test. Note: All formulations contained the insecticide permethrin at a concentration sufficient to deliver approximately 0.02% m/m active in the treated panels. After approximately three years outdoor exposure in Hawaii, the specimens were rated using a typical 0 to 10 rating system (e.g., Evaluation Standard […], AWPA Book of Standards, 2010, American Wood Protection Association, Birmingham, Ala.), where 7 is the lowest score where the specimen is deemed still to be serviceable.

[2] = retention 0.1% m/m (as Zn metal)
[3] = retention 0.2% m/m (as Zn metal)
[4] = retention 0.3% m/m (as Zn metal)

| Substance | C. olivacea Mass Loss (%) (Coniophora olivacea; [2]) | C. olivacea Mass Loss (%) (Coniophora olivacea; [3]) | C. olivacea Mass Loss (%) (Coniophora olivacea; [4]) | F. lilacinogilva Mass Loss (%) (Fomitopsis lilacinogilva; [2]) | F. lilacinogilva Mass Loss (%) (Fomitopsis lilacinogilva; [3]) | F. lilacinogilva Mass Loss (%) (Fomitopsis lilacinogilva; [4]) | Comment (decay state of panels) ([1]; retention 0.11% m/m Cu, approx. three years outdoor exposure in Hawaii, permethrin approx. 0.02% m/m) | Minimum effective retention to prevent decay, as copper ([1]; three year inspection, Hawaii, expressed as copper) |
| --- | --- | --- | --- | --- | --- | --- | --- | --- |
| zinc naphthenate [ZnN] | 50.5% | 42.8% | 28.4% | 65.8% | 60.2% | 53.5% |  |  |
| copper naphthenate |  |  |  |  |  |  | Heavily decayed | > 0.11 % m/m |
